The subject of assay [1] is SASP factors. Nature of the assay: qPCR of SASP and PTGS mRNAs in non-senescent cells treated with eicosanoids. The class given is cell-based, human. The note with it: 10 μM, for PGJ2 and 15d-PGJ2 most factors except VEGF and PDGF. As to the method:
RNA was extracted from cells or tissues using commercially available kits (Isolate II—Bioline for cells; Direct-zol—Zymo for tissues) according to the manufacturer's instructions. cDNA synthesis was performed using a High Capacity cDNA Reverse Transcription Kit (Thermo Fisher) according to the manufacturer's instructions. Quantitative PCR was performed on a LightCycler 480 II (Roche) using primers and probes designed for the Universal Probe Library. Primers and probes used for human transcripts were ACTB: 5′-CCAACCGCGAGAAGATGA (SEQ ID NO:1), 5′-TCCATCACGATGCCAGTG (SEQ ID NO:2), Probe #64; TUBA: 5′-cttcgtctccgccatcag (SEQ ID NO:3), 5′-ttgccaatctggacacca (SEQ ID NO:4), Probe #58; ALOX5: 5′-[…] (SEQ ID NO:5), 5′-[…] (SEQ ID NO:6), Probe #64; ALOX5AP: 5′-ggtctgcggggctacttt (SEQ ID NO:7), 5′-[…] (SEQ ID NO:8), Probe #18; ALOX12: 5′-[…] (SEQ ID NO:9), 5′-agccaggtcgtcaggag (SEQ ID NO:10), Probe #32; ALOX15: 5′-[…] (SEQ ID NO:11), 5′-[…] (SEQ ID NO:12), Probe #76; ALOX15B: 5′-[…] (SEQ ID NO:13), 5′-actgggaggcgaagaagg (SEQ ID NO:14), Probe #51; AKR1C1: 5′-catgcctgtcctgggattt (SEQ ID NO:15), 5′-[…] (SEQ ID NO:16), Probe #49; AKR1C2: 5′-ctatgcgcctgcagaggt (SEQ ID NO:17), 5′-[…] (SEQ ID NO:18), Probe #31; AKR1C3: 5′-[…] (SEQ ID NO:19), 5′-[…] (SEQ ID NO:20), Probe #78; CYSLTR2: 5′-[…] (SEQ ID NO:21), 5′-[…] (SEQ ID NO:22), Probe #18; DPEP1: 5′-gacgtcctgaggctggtg (SEQ ID NO:23), 5′-[…] (SEQ ID NO:24), Probe #9 (SEQ ID NO:25), ELOVL2: 5′-[…] (SEQ ID NO:26), 5′-[…] (SEQ ID NO:27), Probe #53; ELOVL4: 5′-catttggcccatggattc (SEQ ID NO:28), 5′-[…] (SEQ ID NO:29), Probe #31; ELOVL5: 5′-cccttccatgcgtccata (SEQ ID NO:30), 5′-[…] (SEQ ID NO:31), Probe #31; EPHX2: 5′-ttctgctggacaccctgaa (SEQ ID NO:32), 5′-[…] (SEQ ID NO:33), Probe #45; GPX4: 5′-ttcccgtgtaaccagttcg (SEQ ID NO:34), 5′-[…] (SEQ ID NO:35), Probe #36; LTA4H: 5′-ctgctctcacggtccagtc (SEQ ID NO:36), 5′-[…] (SEQ ID NO:37), Probe #64; LTBR2: 5′-[…] (SEQ ID NO:38), 5′-[…] (SEQ ID NO:39), Probe #33; LTC4S: 5′-[…] (SEQ ID NO:40), 5′-[…] (SEQ ID NO:41), Probe #18; PTGDS: 5′-[…] (SEQ ID NO:42), 5′-[…] […]
Background: In qPCR the cycle at which signal appears reflects the starting amount.

In assay [2] the test system is bleomycin-induced fibrosis. The note with it: administration; Kida 2016, Genovese 2005; cited from earlier work.
Assay [3] deals with IMR-90 fibroblasts. Nature of the assay: Induction of senescence in non-senescent cells by prostaglandins or 5-LOX pathway products (EdU, SA-B-gal, p21, immunoblot). The class given is cell-based, human. As to conditions: 10 μM, 10 days. As for the experimental part: RNA was extracted from cells or tissues using commercially available kits (Isolate II—Bioline for cells; Direct-zol—Zymo for tissues) according to the manufacturer's instructions. cDNA synthesis was performed using a High Capacity cDNA Reverse Transcription Kit (Thermo Fisher) according to the manufacturer's instructions. Quantitative PCR was performed on a LightCycler 480 II (Roche) using primers and probes designed for the Universal Probe Library. Primers and probes used for human transcripts were ACTB: 5′-CCAACCGCGAGAAGATGA (SEQ ID NO:1), 5′-TCCATCACGATGCCAGTG (SEQ ID NO:2), Probe #64; TUBA: 5′-cttcgtctccgccatcag (SEQ ID NO:3), 5′-ttgccaatctggacacca (SEQ ID NO:4), Probe #58; ALOX5: 5′-[…] (SEQ ID NO:5), 5′-[…] (SEQ ID NO:6), Probe #64; ALOX5AP: 5′-ggtctgcggggctacttt (SEQ ID NO:7), 5′-[…] (SEQ ID NO:8), Probe #18; ALOX12: 5′-[…] (SEQ ID NO:9), 5′-agccaggtcgtcaggag (SEQ ID NO:10), Probe #32; ALOX15: 5′-[…] (SEQ ID NO:11), 5′-[…] (SEQ ID NO:12), Probe #76; ALOX15B: 5′-[…] (SEQ ID NO:13), 5′-actgggaggcgaagaagg (SEQ ID NO:14), Probe #51; AKR1C1: 5′-catgcctgtcctgggattt (SEQ ID NO:15), 5′-[…] (SEQ ID NO:16), Probe #49; AKR1C2: 5′-ctatgcgcctgcagaggt (SEQ ID NO:17), 5′-[…] (SEQ ID NO:18), Probe #31; AKR1C3: 5′-[…] (SEQ ID NO:19), 5′-[…] (SEQ ID NO:20), Probe #78; CYSLTR2: 5′-[…] (SEQ ID NO:21), 5′-[…] (SEQ ID NO:22), Probe #18; DPEP1: 5′-gacgtcctgaggctggtg (SEQ ID NO:23), 5′-[…] (SEQ ID NO:24), Probe #9 (SEQ ID NO:25), ELOVL2: 5′-[…] (SEQ ID NO:26), 5′-[…] (SEQ ID NO:27), Probe #53; ELOVL4: 5′-catttggcccatggattc (SEQ ID NO:28), 5′-[…] (SEQ ID NO:29), Probe #31; ELOVL5: 5′-cccttccatgcgtccata (SEQ ID NO:30), 5′-[…] (SEQ ID NO:31), Probe #31; EPHX2: 5′-ttctgctggacaccctgaa (SEQ ID NO:32), 5′-[…] (SEQ ID NO:33), Probe #45; GPX4: 5′-ttcccgtgtaaccagttcg (SEQ ID NO:34), 5′-[…] (SEQ ID NO:35), Probe #36; LTA4H: 5′-ctgctctcacggtccagtc (SEQ ID NO:36), 5′-[…] (SEQ ID NO:37), Probe #64; LTBR2: 5′-[…] (SEQ ID NO:38), 5′-[…] (SEQ ID NO:39), Probe #33; LTC4S: 5′-[…] (SEQ ID NO:40), 5′-[…] (SEQ ID NO:41), Probe #18; PTGDS: 5′-[…] (SEQ ID NO:42), 5′-[…] (SEQ ID NO:43), Probe #36; PTGES: 5′-agagatgcctgcccacag (SEQ ID NO:44), 5′-tggccaccacgtacatctt (SEQ ID NO:45), Probe #4; PTGES2: 5′-[…] (SEQ ID NO:46), 5′-[…] (SEQ ID NO:47), Probe #49; PTGES3 (SEQ ID NO:48), 5′-[…] (SEQ ID NO:49), 5′-[…] (SEQ ID NO:50), Probe #48; PTGIS: 5′-[…] (SEQ ID NO:51), 5′-[…] (SEQ ID NO:52), Probe #45; PTGR1: 5′-atgatggggcagcaagtg (SEQ ID NO:53), 5′-cccatcagaaatggagtgc (SEQ ID NO:54), Probe #64; PTGS1: 5′-[…] (SEQ ID NO:55), 5′-gtggtggtccatgttcctg (SEQ ID NO:56), Probe #81; PTGS2: 5′-gatccccagggctcaaac (SEQ ID NO:57), 5′-[…] (SEQ ID NO:58), Probe #61; TBXAS1: 5′-[…] (SEQ ID NO:59), 5′-tgcctcccgtgtgaatct (SEQ ID NO:60), Probe #73; AREG: 5′-[…] (SEQ ID NO:61), 5′-[…] (SEQ ID NO:62), Probe #73; CCL2: 5′-AGTCTCTGCCGCCCTTCT (SEQ ID NO:63), 5′-GTGACTGGGGCATTGATTG (SEQ ID NO:64), Probe #40; CCL27: 5′-[…] (SEQ ID NO:65), 5′-gctgggtggcagtaggaat (SEQ ID NO:66), Probe #18; CXCL1: 5′-[…] (SEQ ID NO:67), 5′-[…] (SEQ ID NO:68), Probe #52; HGF: 5′-[…] (SEQ ID NO:69), 5′-[…] (SEQ ID NO:70), Probe #49; ILIA: 5′-[…] (SEQ ID NO:71), 5′-[…] (SEQ ID NO:72), Probe #6; IL1B: 5′-[…] (SEQ ID NO:73), 5′-[…] (SEQ ID NO:74), Probe #78; IL6: 5′-[…] (SEQ ID NO:75), 5′-gaaggcagcaggcaacac (SEQ ID NO:76), Probe #45; IL8: 5′-[…] (SEQ ID NO:77), 5′-atggttccttccggtggt (SEQ ID NO:78), Probe #72; IL10: 5′-[…] (SEQ ID NO:79), 5′-[…] (SEQ ID NO:80), Probe #67; MMP3: 5′-[…] (SEQ ID NO:81), 5′-[…] (SEQ ID NO:82), Probe #36; PDGFA: 5′-[…] (SEQ ID NO:83), 5′-[…] (SEQ ID NO:84), Probe #80; VEGF: 5′-[…] (SEQ ID NO:85), 5′-[…] (SEQ ID NO:86), Probe #50; P21WAF1(CDKN1A): 5′-[…]
(In general: In western blotting, separated proteins are transferred to a membrane and probed.)

Molecules are shown by their SMILES.

With `CCCCC/C=C/C=C1/C(=O)C=C[C@@H]1C/C=C\CCCC(=O)O` [15d-PGJ2], in assay [1], the “SASP factor mRNAs” value is recorded as “strongly induced”. For the same compound, in assay [2], the bleomycin-induced fibrosis entry is “attenuate”. In assay [3], the p21 gene expression entry is on record as “induced” and the senescence-associated beta-galactosidase result is “induced”. Also, the p21 protein accumulation entry in assay [3] (immunoblot) was “induced”.

Source of the values: US20200371122A1, “BIOMARKER FOR SENESCENT CELLS” (Buck Institute for Research on Aging, priority 2017, published 2020).
